Like-named read-outs stand apart in the source and are kept apart here.
Assays:
[1] = molecular target: T1, p38α MAPK (Homo sapiens (Human), UniProt Q16539); test: LanthaScreen Eu kinase binding assay, p38 MAPK (IM-32 to IM-44); settings: LanthaScreen Eu binding assay (IM-32 to IM-44); read-out: p38α MAPK IC50 ± SEM
Description: The p38 MAPK IC50 values of selected compounds except IM-32 to IM-44 were determined using the HitHunter™ p38 MAP kinase binding assay from DiscoveRx Corporation (Fremont, Calif., USA). The p38 MAPK IC50 values of IM-32 to IM-44 and the CK1 IC50 values of selected compounds were determined using LanthaScreen™ Eu kinase binding assay from Invitrogen (Life Technologies, Carlsbad, Calif., USA). The assays were performed following the manufacturers' protocols in white 384-well plates (Cat. No. 3572; Corning Incorporated, Corning, N.Y., USA). SB203580 was used as the control in all assays. For the HitHunter™ p38 MAP kinase binding assay the compounds were dissolved in DMSO (5 mM stocks) and diluted to a final concentration of 2% (vol/vol) DMSO for all assays. Recombinant GST-tagged active p38α MAP kinase enzyme (Millipore, Billerica, Mass., USA) was used for the HitHunter™ p38 MAP kinase binding assay. For the LanthaScreen™ Eu kinase binding assay the compounds were dissolved in DMSO (5 mM stocks) and diluted to a final concentration of 1% (vol/vol) DMSO for all assays. Each data point was done in triplicate. The assay was run using JANUS Automated Workstation according to the protocol developed using WinPREP software (Perkin Elmer Inc., Waltham, Mass., USA). Tecan Infinite® M1000 microplate reader (Tecan Group Ltd., Minnedorf, Switzerland) was used for luminescence measurements (HitHunter™ p38 MAP kinase binding assay) and fluorescence measurements (LanthaScreen™ Eu kinase binding assay; ex=340 nm, em=665, 615 nm). All data analysis was performed using GraphPad Prism 5 software (GraphPad Software Inc.). Inhibition curves and IC50 values were generated by nonlinear regression analysis and data represent mean±SEM.
The in vitro IC50 values of the synthesized compounds against the relevant kinase targets are summarized. The IC50 values were determined using either the HitHunter™ p38 MAPK binding assay from DiscoveRx or the LanthaScreen™ Eu kinase binding assay (for p38alpha MAPK, CK1delta, and CK1epsilon) from Invitrogen.

[2] = molecular target: CK1ϵ (Homo sapiens (Human), UniProt P49674); test: LanthaScreen Eu kinase binding assay, CK1ϵ
Chain of CK1ϵ (P49674 whole entry): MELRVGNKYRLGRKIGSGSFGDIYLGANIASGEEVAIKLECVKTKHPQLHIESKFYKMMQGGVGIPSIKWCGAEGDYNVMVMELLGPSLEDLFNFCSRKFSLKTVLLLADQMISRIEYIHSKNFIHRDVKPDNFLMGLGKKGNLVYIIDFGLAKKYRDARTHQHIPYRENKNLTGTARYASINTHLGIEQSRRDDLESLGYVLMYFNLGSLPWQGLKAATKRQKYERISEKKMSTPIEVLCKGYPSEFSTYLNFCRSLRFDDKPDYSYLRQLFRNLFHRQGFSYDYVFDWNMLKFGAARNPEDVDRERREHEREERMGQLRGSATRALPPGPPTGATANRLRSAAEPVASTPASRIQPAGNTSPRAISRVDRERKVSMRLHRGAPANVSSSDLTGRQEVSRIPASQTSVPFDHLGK

[3] = molecular target: CK1δ (Homo sapiens (Human), UniProt P48730); test: LanthaScreen Eu kinase binding assay, CK1δ
Chain of CK1δ (P48730 whole entry): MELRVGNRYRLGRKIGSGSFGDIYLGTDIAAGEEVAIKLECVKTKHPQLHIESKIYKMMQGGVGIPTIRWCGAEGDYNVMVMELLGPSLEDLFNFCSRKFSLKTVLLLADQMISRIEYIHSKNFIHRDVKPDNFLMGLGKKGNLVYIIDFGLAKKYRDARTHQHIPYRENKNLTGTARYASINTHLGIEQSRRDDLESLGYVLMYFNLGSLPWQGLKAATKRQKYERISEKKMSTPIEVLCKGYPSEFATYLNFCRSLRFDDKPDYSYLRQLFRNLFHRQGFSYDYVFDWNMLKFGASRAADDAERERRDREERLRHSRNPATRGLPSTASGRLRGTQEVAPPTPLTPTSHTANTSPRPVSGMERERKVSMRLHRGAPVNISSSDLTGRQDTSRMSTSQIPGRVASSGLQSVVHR

[4] = molecular target: T1, p38α MAPK; test: HitHunter p38 MAP kinase binding assay
[5] = test system: hESC3 Nkx2.5eGFP/w cells; test: Differentiation in 96-U bottom ultra-low attachment well plates, GFP area imaging; format: cell-based, human; settings: 5 μM; for Average GFP %: after CHIR99021, read on day 14, GFP area over embryoid body size; for Average GFP μm^2 / Average Area μm^2: day 14; for Average Area μm^2: embryoid body size
[6] = test system: p38α MAPK; settings: read-out: IC50 (published by companies), p38α MAPK inhibition; cited from earlier work
[7] = test system: H3 hESCs Nkx2.5eGFP/w; test: High yield cardiomyocyte differentiation after 24 h CHIR99021 pre-treatment; format: cell-based, human; settings: CHIR99021 only; CHIR99021 with SB203580 (days 1-8); CHIR99021 with IM-31 (days 4-8)

T1 sequence (Q16539 whole entry, looked up): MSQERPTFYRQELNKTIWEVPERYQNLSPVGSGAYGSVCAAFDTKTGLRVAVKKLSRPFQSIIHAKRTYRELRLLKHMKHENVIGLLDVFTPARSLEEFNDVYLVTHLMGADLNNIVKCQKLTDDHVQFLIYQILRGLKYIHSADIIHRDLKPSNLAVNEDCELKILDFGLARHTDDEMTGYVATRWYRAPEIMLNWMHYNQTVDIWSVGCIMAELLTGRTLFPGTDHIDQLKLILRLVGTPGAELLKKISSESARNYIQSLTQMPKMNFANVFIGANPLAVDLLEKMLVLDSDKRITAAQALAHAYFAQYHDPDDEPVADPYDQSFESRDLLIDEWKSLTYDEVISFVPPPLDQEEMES

SMILES	IC50 [1] [nM]	inhibition at 1 µM [2] [%]	IC50 ([2]; read-out: CK1ϵ IC50 ± SEM) [nM]	IC50 ([3]; Table 3, read-out: IC50 CK1δ) [nM]	IC50 ([3]; read-out: CK1δ IC50 ± SEM) [nM]	inhibition at 1 µM [3] [%]	also measured
Cc1cccc(-c2nc(C(O)C3=CCCCC3)[nH]c2-c2ccncc2)c1 (racemic) [IM-43, Cyclohex-1-en-1-yl(5(4)-(pyridin-4-yl)-4(5)-(m-tolyl)-1H-imidazol-2-yl)methanol]	11 ± 2	22	–	–	–	–	CK1δ inhibition at 1 μM ([3]; at 1 μM): No inhibition at 1 μM
Cc1cccc(-c2nc(-c3ccc([S+](C)[O-])cc3)[nH]c2-c2ccncc2)c1 (stereo not shown) [IM-28]	–	–	274 ± 7	708	708 ± 43	–	IC50 ([4]; read-out: p38α MAPK IC50 ± SEM): 0.024 ± 0.009 µM; IC50 ([2]; Table 3, read-out: IC50 Ck1ε): 274 nM
Fc1ccc(-c2nc(-c3ccc4ccccc4c3F)[nH]c2-c2ccncc2)cc1 [IM-29, 4-(2-(1-fluoronaphthalen-2-yl)-4(5)-(4-fluorophenyl)-1H-imidazol-5(4)-yl)pyridine]	–	–	16 ± 3	15	15 ± 3	–	IC50 ([4]; read-out: p38α MAPK IC50 ± SEM): 0.073 ± 0.017 µM; IC50 ([2]; read-out: IC50 Ck1ε): 16 nM
Fc1ccc(-c2nc(-c3ccccc3F)[nH]c2-c2ccncc2)cc1 [IM-30, 4-(2-(2-fluorophenyl)-4(5)-(4-fluorophenyl)-1H-imidazol-5(4)-yl)pyridine]	–	–	32 ± 4	32	32 ± 4	–	Cardiogenic properties ([5]; at specific time course (induction day 2 or 3)): higher cardiogenic properties as SB203580 and IWP-2; Average GFP % ([5]; Induction Day 2): 32.8%; Average GFP μm^2 ([5]; Induction Day 2): 250.1 μm^2; Average Area μm^2 ([5]; Induction Day 2): 816.0 μm^2; Average GFP % ([5]; Induction Day 3): 36.5%; Average GFP μm^2 ([5]; Induction Day 3): 354.1 μm^2; Average Area μm^2 ([5]; Induction Day 3): 968.7 μm^2; IC50 ([4]; read-out: p38α MAPK IC50 ± SEM): 0.02 ± 0.004 µM; IC50 ([2]; Table 3, read-out: IC50 Ck1ε): 32 nM
Cc1cccc(-c2nc(-c3ccc([N+](=O)[O-])cc3)[nH]c2-c2ccncc2)c1 [IM-32, 4-(2-(4-nitrophenyl)-4(5)-(m-tolyl)-1H-imidazol-5(4)-yl)pyridine]	4.4 ± 2.4	47	–	–	–	31	–
Cc1cccc(-c2nc(-c3ccc(S(C)(=O)=O)cc3)[nH]c2-c2ccncc2)c1 [IM-33, 4-(2-(4-(methylsulfonyl)phenyl)-4(5)-(m-tolyl)-1H-imidazol-5(4)-yl)pyridine]	9.5 ± 2.8	36	–	–	–	23	–
Cc1cccc(-c2nc(-c3ccc(N)cc3)[nH]c2-c2ccncc2)c1 [IM-34, 4-(5(4)-(pyridin-4-yl)-4(5)-(m-tolyl)-1H-imidazol-2-yl)aniline]	2.8 ± 2	28	–	–	–	24	–
Cc1cccc(-c2nc(-c3ccc(NS(C)(=O)=O)cc3)[nH]c2-c2ccncc2)c1 [IM-35, N-(4-(5(4)-(pyridin-4-yl)-4(5)-(m-tolyl)-1H-imidazol-2-yl)phenyl)methanesulfonamide]	5	40	–	–	–	13	–
Cc1cccc(-c2nc(-c3ccc(C#N)cc3)[nH]c2-c2ccncc2)c1 [IM-36, 4-(5(4)-(pyridin-4-yl)-4(5)-(m-tolyl)-1H-imidazol-2-yl)benzonitrile]	5.3 ± 0.5	36	–	–	–	11	–
Cc1cccc(-c2nc(-c3ccc(C(=N)NO)cc3)[nH]c2-c2ccncc2)c1 [IM-37, (Z)—N′-hydroxy-4-(5(4)-(pyridin-4-yl)-4(5)-(m-tolyl)-1H-imidazol-2-yl)benzimidamide]	3.2 ± 0.3	–	295 ± 48	889	889 ± 290	–	IC50 ([2]; Table 3, read-out: IC50 Ck1ε): 295 nM
Cc1cccc(-c2nc(-c3ccc(C(=O)O)cc3)[nH]c2-c2ccncc2)c1 [IM-38, 4-(5(4)-(pyridin-4-yl)-4(5)-(m-tolyl)-1H-imidazol-2-yl)benzoic acid]	3.3 ± 1.1	–	1060 ± 108	4710	4710 ± 1620	–	IC50 ([2]; Table 3, read-out: IC50 Ck1ε): 1060 nM
Cc1cccc(-c2nc(-c3ccc(C(N)=O)cc3)[nH]c2-c2ccncc2)c1 [IM-39, 4-(5(4)-(pyridin-4-yl)-4(5)-(m-tolyl)-1H-imidazol-2-yl)benzamide]	2.7 ± 0.3	–	300 ± 16	787	787 ± 98	–	IC50 ([2]; Table 3, read-out: IC50 Ck1ε): 300 nM
COC(=O)c1ccc(-c2nc(-c3cccc(C)c3)c(-c3ccncc3)[nH]2)cc1 [IM-40, Methyl 4-(5(4)-(pyridin-4-yl)-4(5)-(m-tolyl)-1H-imidazol-2-yl)benzoate]	3.7 ± 0.7	43	–	–	–	10	–
Cc1cccc(-c2nc(C#CCCO)[nH]c2-c2ccncc2)c1 [IM-41, 4-(5(4)-(pyridin-4-yl)-4(5)-(m-tolyl)-1H-imidazol-2-yl)but-3-yn-1-ol]	47 ± 5	38	–	–	–	11	–
Cc1cccc(-c2nc(CN(C)C)[nH]c2-c2ccncc2)c1 [IM-42, N,N-dimethyl-1-(5(4)-(pyridin-4-yl)-4(5)-(m-tolyl)-1H-imidazol-2-yl)methanamine]	26 ± 3	29	–	–	–	3	–
Cc1cccc(-c2nc[nH]c2-c2ccncc2)c1 [IM-44, 4-(4(5)-(m-tolyl)-1H-imidazol-5(4)-yl)pyridine]	45 ± 8	42	–	–	–	4	–
C[S+]([O-])c1ccc(-c2nc(-c3ccc(F)cc3)c(-c3ccncc3)o2)cc1 (stereo not shown) [OZ-06]	–	54	–	–	–	46	IC50 ([4]; read-out: p38α MAPK IC50 ± SEM): 0.314 ± 0.044 µM
C[S+]([O-])c1ccc(-c2nc(-c3ccncc3)c(-c3ccc(F)cc3)o2)cc1 (stereo not shown) [OZ-12, 5-(4-fluorophenyl)-2-(4-(methylsulfinyl)phenyl)-4-(pyridin-4-yl)oxazole]	–	51	–	–	–	34	IC50 ([4]; bound given in μM, read-out: p38α MAPK IC50): > 5 µM
Oc1ccc(-c2nc(-c3ccc(F)cc3)c(-c3ccncc3)[nH]2)cc1 [SB202190, reference compound]	–	–	83 ± 4	53	53 ± 7	–	IC50 [6]: […]; IC50 ([2]; Table 3, read-out: IC50 Ck1ε): 83 nM
C[S+]([O-])c1ccc(-c2nc(-c3ccc(F)cc3)c(-c3ccncc3)[nH]2)cc1 (stereo not shown) [SB203580, reference compound]	–	–	–	–	–	–	Average GFP % ([5]; Induction Day 2): 34.6%; Average GFP μm^2 ([5]; Induction Day 2): 217.8 μm^2; Average Area μm^2 ([5]; Induction Day 2): 655.4 μm^2; Average GFP % ([5]; Induction Day 3): 3.7%; Average GFP μm^2 ([5]; Induction Day 3): 40.2 μm^2; Average Area μm^2 ([5]; Induction Day 3): 814.2 μm^2; Average beating frequency [7]: 25-30 beats per minute; Beat count (percentage of EBs contracting within 10 s) [7]: over 75%; Beating area [7]: > 5 mm^2

Reference: patent publication US10865384B2, “2,4,5-tri-substituted azole-based casein kinase 1 inhibitors as inducers for cardiomyogenesis” (AGENCY FOR SCIENCE, TECHNOLOGY AND RESEARCH, priority 2014, dated 2020)
